Data reported in US20230192622A1, “ANTI-SARS-COV-2 DRUG” (ONCOLYS BIOPHARMA, INC., priority 2020, published 2023).
Where two headings read alike, the source gives them in different places.

Key:
SARS-CoV-2 (WK-521) [1] = assay: Anti-SARS-CoV-2 effect, assay with VeroE6/TMPRSS2 cells (inhibition of virus-induced cell death, Cell Counting Kit-8); format: cell-based; details: for EC50: VeroE6/TMPRSS2 cells, MOI=0.01, 3 days of culture, read-out: EC50: 50% effective concentration (concentration of agent which inhibits cell death induced by SARS-CoV-2 infection by 50%)
VeroE6/TMPRSS2 cells [2] = assay: Cytotoxicity in uninfected VeroE6/TMPRSS2 cells (viable cell number, Cell Counting Kit-8); details: read-out: CC50: 50% cytotoxic concentration (concentration of agent which reduces the number of viable cells by 50%), 3 days of culture
in vitro [3] = details: African green monkey
VeroE6/TMPRSS2 cells [4] = details: African green monkey, 3 days
SARS-CoV-2 (WK-521) [5] = assay: microbe, parasite or virus in culture; format: cell-based; details: Severe acute respiratory syndrome coronavirus 2, HEK-293T, 72 h, HEK293T/ACE2 cells, MOI=0.1, 3 days, qPCR of viral RNA in supernatant; for IC90: read-out: IC50(μM) (footnote defines IC90: 90% inhibitory concentration); for IC50: read-out: IC50: 50% inhibitory concentration (reduces viral production and replication by 50%)
in vitro [6] = details: human
HEK293T/ACE2 cells = details: human, 3 days

| Compound | EC50 (SARS-CoV-2 (WK-521) [1]) [µM] | CC50 at 3 days (in vitro [3]) [µM] | IC90 (SARS-CoV-2 (WK-521) [5]) [µM] | IC50 (SARS-CoV-2 (WK-521) [5]) [µM] | CC50 at 3 days (in vitro [6]) [µM] | further results |
| --- | --- | --- | --- | --- | --- | --- |
| 5-butyl-2-(1′,1′,1′,3′,3′,3′-hexafluoro-2′-hydroxypropan-2′-yl)-7,8,9-trimethoxy-phenanthridin-6(5H)-one [KZ39] | 8.6 |  |  |  |  | CC50 (VeroE6/TMPRSS2 cells [2]): > 10 µM |
| CCCCn1c(=O)c2ccccc2c2cc(C(O)(C(F)(F)F)C(F)(F)F)ccc21 [HA-579] | 8.7 | > 10 |  |  |  |  |
| CCCCn1c(=O)c2ccccc2c2cc(C(O)(C(F)(F)F)C(F)(F)F)c3c(c21)OCO3 [HA-718, 4-butyl-11-(1′,1′,1′,3′,3′,3′-hexafluoro-2′-hydroxypropan-2′-yl)-[1,3]dioxolo [4,5-c]phenanthridin-5(4H)-one] | 3.1 | > 10 |  |  |  |  |
| CCCCn1c(=O)c2cc(OC)ccc2c2cc(C(O)(C(F)(F)F)C(F)(F)F)c3c(c21)OCO3 [HA-719, 4-butyl-11-(1′,1′,1′,3′,3′,3′-hexafluoro-2′-hydroxypropan-2′-yl)-7-methoxy-[1,3]dioxolo[4,5-c]phenanthridin-5(4H)-one] | 2.6 | > 10 |  |  |  | cell death due to SARS-CoV-2 infection observed under a microscope (FIG. 2) (SARS-CoV-2 (WK-521) [1]; 5 μM of HA-719, VeroE6/TMPRSS2 cells): almost no cell death was observed |
| CCCCn1c(=O)c2cc(OC)ccc2c2cc(C(O)(C(F)(F)F)C(F)(F)F)c(OC)c(OC)c21 [HA-727, 5-butyl-2-(1′,1′,1′,3′,3′,3′-hexafluoro-2′-hydroxypropan-2′-yl)-3,4,8-trimethoxy-phenanthridin-6(5H)-one] | 4.8 | > 10 |  |  |  |  |
| CCCCn1c(=O)c2cc3c(cc2c2cc(C(O)(C(F)(F)F)C(F)(F)F)c4c(c21)OCO4)OCO3 [HA-754] | 5 | > 10 |  |  |  |  |
| CC(C)Cn1c(=O)c2ccccc2c2cc(C(O)(C(F)(F)F)C(F)(F)F)ccc21 [KZ01] | 5.4 | > 10 |  |  |  |  |
| CCCCn1c(=O)c2ccccc2c2cc(C(O)(C(F)(F)F)C(F)(F)F)cc(C)c21 [KZ07] | 3.3 |  |  |  |  | CC50 (VeroE6/TMPRSS2 cells [4]): > 10 µM |
| CCCCn1c(=O)c2ccccc2c2cc(C(O)(C(F)(F)F)C(F)(F)F)cc(OC)c21 [KZ08] | 2.9 | > 10 |  |  |  |  |
| CCCCn1c(=O)c2cc(OC)ccc2c2cc(C(O)(C(F)(F)F)C(F)(F)F)ccc21 [KZ12] | 8.8 | > 10 |  |  |  |  |
| CCCCn1c(=O)c2cc(C)ccc2c2cc(C(O)(C(F)(F)F)C(F)(F)F)ccc21 [KZ24] | 4.1 |  |  |  |  | CC50 (VeroE6/TMPRSS2 cells [4]): > 10 µM |
| CCCCn1c(=O)c2cc3c(cc2c2cc(C(O)(C(F)(F)F)C(F)(F)F)ccc21)OCO3 [KZ26, 5-butyl-2-(1′,1′,1′,3′,3′,3′-hexafluoro-2′-hydroxypropan-2′-yl)-[1,3] dioxolo[4,5-j] phenanthridin-6(5H)-one] | 2.9 | > 10 |  |  |  |  |
| CCCCn1c(=O)c2c(OC)cccc2c2cc(C(O)(C(F)(F)F)C(F)(F)F)ccc21 [KZ31, 5-butyl-2-(1′,1′,1′,3′,3′,3′-hexafluoro-2′-hydroxypropan-2′-yl)-7-methoxy-phenanthridin-6(5H)-one] | 3.3 | > 10 |  |  |  |  |
| CCCCn1c(=O)c2ccc(OC)cc2c2cc(C(O)(C(F)(F)F)C(F)(F)F)ccc21 [KZ32, 5-butyl-2-(1′,1′,1′,3′,3′,3′-hexafluoro-2′-hydroxypropan-2′-yl)-9-methoxy-phenanthridin-6(5H)-one] | 1.8 | > 10 | 7.37 | 1.03 | > 20 |  |
| CCCCn1c(=O)c2cccc(OC)c2c2cc(C(O)(C(F)(F)F)C(F)(F)F)ccc21 [KZ33, 5-butyl-2-(1′,1′,1′,3′,3′,3′-hexafluoro-2′-hydroxypropan-2′-yl)-10-methoxy-phenanthridin-6(5H)-one] | 4.1 | > 10 |  |  |  |  |
| CCCCn1c(=O)c2ccc(OCCO)cc2c2cc(C(O)(C(F)(F)F)C(F)(F)F)ccc21 [NR-04, 5-butyl-2-(1,1,1,3,3,3-hexafluoro-2-hydroxypropan-2-yl)-9-(2-hydroxyethoxy)-phenanthridin-6(5H)-one] |  |  | 3.72 | 0.489 | > 20 |  |
| CCCCn1c(=O)c2cc(O)ccc2c2cc(C(O)(C(F)(F)F)C(F)(F)F)cc(OC)c21 [NR-19] |  |  | 4.44 | 0.61 | > 20 |  |
| CCCCn1c(=O)c2cc(OCCO)ccc2c2cc(C(O)(C(F)(F)F)C(F)(F)F)cc(OC)c21 [NR-26] |  |  | 14.8 | 1.24 | > 20 |  |

| Compound | EC50 (SARS-CoV-2 (WK-521) [1]) [µM] | CC50 at 3 days (in vitro [3]) [µM] | IC90 (SARS-CoV-2 (WK-521) [5]) [µM] | IC50 (SARS-CoV-2 (WK-521) [5]) [µM] | CC50 at 3 days (in vitro [6]) [µM] | further results |
| --- | --- | --- | --- | --- | --- | --- |
| CCCCn1c(=O)c2ccc(OCC(C)(C)O)cc2c2cc(C(O)(C(F)(F)F)C(F)(F)F)ccc21 [NR-32, 5-butyl-2-(1,1,1,3,3,3-hexafluoro-2-hydroxypropan-2-yl)-9-(2-hydroxy-2-methylpropyloxy)phenanthridin-6(5H)-one] |  |  | 2.34 | 0.27 | > 20 |  |
| CCCCn1c(=O)c2ccc(OC(CO)CO)cc2c2cc(C(O)(C(F)(F)F)C(F)(F)F)ccc21 [NR-46] |  |  | 3.76 | 0.44 | > 20 |  |
| CCCCn1c(=O)c2cc(NC(=O)C3CC3)ccc2c2cc(C(O)(C(F)(F)F)C(F)(F)F)ccc21 [NR-51] |  |  | 1.8 | 0.3 | 8.4 |  |
| CCCCn1c(=O)c2cc(O)c(OC3(C)CNC3)cc2c2cc(C(O)(C(F)(F)F)C(F)(F)F)ccc21 [NR-58] |  |  | 4.69 | 1.04 | 10.6 |  |
| CCCCn1c(=O)c2cc(F)c(OCCN(C)C)cc2c2cc(C(O)(C(F)(F)F)C(F)(F)F)ccc21 [NR-60] |  |  | > 10 | 0.95 | 6.73 |  |
| CCCCn1c(=O)c2cc(F)c(OCCO)cc2c2cc(C(O)(C(F)(F)F)C(F)(F)F)ccc21 [NR-61] |  |  | 4.99 | 1.09 | 19 |  |
| CCCCn1c(=O)c2cc(F)c(OCCNC(C)=O)cc2c2cc(C(O)(C(F)(F)F)C(F)(F)F)ccc21 [NR-62] |  |  | 7.82 | 1.28 | 13 |  |
| CCCCn1c(=O)c2cc(F)c(OCC(N)=O)cc2c2cc(C(O)(C(F)(F)F)C(F)(F)F)ccc21 [NR-63] |  |  | 2.48 | 0.21 | > 20 |  |
| CCCCn1c(=O)c2cc(F)c(O[C@@H]3COC[C@@H]3O)cc2c2cc(C(O)(C(F)(F)F)C(F)(F)F)ccc21 [NR-65] |  |  | 6.76 | 0.2 | 18.2 |  |
| CCCCn1c(=O)c2cc(F)c(OC3CCOC3)cc2c2cc(C(O)(C(F)(F)F)C(F)(F)F)ccc21 (centres unmarked) [NR-66] |  |  | 5.66 | 0.8 | 13.9 |  |
| CCCCn1c(=O)c2cc(OC3CCOC3)c(OC3CCOC3)cc2c2cc(C(O)(C(F)(F)F)C(F)(F)F)ccc21 (centres unmarked) [NR-67] |  |  | > 10 | 1.32 | 19 |  |
| CCCCn1c(=O)c2cc(F)c(OC3COC3)cc2c2cc(C(O)(C(F)(F)F)C(F)(F)F)ccc21 [NR-80] |  |  | 6.16 | 0.59 | 19.1 |  |
| CCCCn1c(=O)c2cc(F)c(OCC(O)CO)cc2c2cc(C(O)(C(F)(F)F)C(F)(F)F)ccc21 (centres unmarked) [NR-82] |  |  | 8.57 | 0.95 | 14.5 |  |
| CCCCn1c(=O)c2cc3c(cc2c2cc(C(O)(C(F)(F)F)C(F)(F)F)ccc21)OC1COCC1O3 (centres unmarked) [NR-84] |  |  | 5.83 | 1.74 | > 20 |  |
| CCCCn1c(=O)c2ccc(OCC(C)=O)cc2c2cc(C(O)(C(F)(F)F)C(F)(F)F)ccc21 [NR-93] |  |  | 3.27 | 0.243 |  | CC50 (HEK293T/ACE2 cells): > 20 µM |
| CCCCn1c(=O)c2ccc(OCC(=O)NC)cc2c2cc(C(O)(C(F)(F)F)C(F)(F)F)ccc21 [NR-97] |  |  | 3.27 | 0.24 | > 20 |  |
| CCCCn1c(=O)c2ccc(O)cc2c2cc(C(O)(C(F)(F)F)C(F)(F)F)ccc21 [YN029, 5-butyl-2-(1′,1′,1′,3′,3′,3′-hexafluoro-2′-hydroxypropan-2′-yl) hydroxyphenanthridin-6(5H)-one] | 1.9 | > 10 | 3.04 | 0.588 | 16.9 |  |
| CCCCn1c(=O)c2ccc(C)cc2c2cc(C(O)(C(F)(F)F)C(F)(F)F)ccc21 [YN033] | 6 |  |  |  |  | CC50 (VeroE6/TMPRSS2 cells [4]): > 10 µM |
